Measured values from patent US20170369492A1 (Takeda Pharmaceutical Company Limited, priority 2014, published 2017).

Biological target: T1, human GPR43 (Homo sapiens, UniProt O15552)
T1 construct: expressed in transfected cells
T1 sequence (O15552 1-330): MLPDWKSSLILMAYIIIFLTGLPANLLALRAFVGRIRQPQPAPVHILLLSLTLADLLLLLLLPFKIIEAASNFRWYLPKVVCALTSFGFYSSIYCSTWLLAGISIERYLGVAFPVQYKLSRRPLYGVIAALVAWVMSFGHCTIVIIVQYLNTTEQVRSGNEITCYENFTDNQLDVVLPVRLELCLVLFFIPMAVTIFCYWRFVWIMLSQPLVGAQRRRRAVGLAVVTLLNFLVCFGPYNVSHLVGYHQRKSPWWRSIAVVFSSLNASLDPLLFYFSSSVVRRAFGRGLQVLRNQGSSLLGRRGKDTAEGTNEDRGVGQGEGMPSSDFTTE
Assay: Ca-Flux Functional Assay: Determination of Agonist/Positive Allosteric Modulator (PAM) Activity
Assay type: cell-based
Details: CHO-K1 Gα16 cells stably expressing human GPR43; compound added in the presence of EC20 sodium acetate; intracellular Ca2+ by FLIPR; agonist/PAM activity not distinguished
Procedure: Ca-Flux Functional Assay: Determination of Agonist/Positive Allosteric Modulator (PAM) Activity
GPR43 agonist/PAM activity was determined by measuring changes in intracellular calcium levels using a Ca^2+ sensitive fluorescent dye. The changes in fluorescent signal were monitored by FLIPR (manufactured by Molecular Devices). GPR43 mediated increases in intracellular Ca^2+ concentration were readily detected upon activation with sodium acetate. Prior to the assay (24 hours), CHO-K1 Gα16 cells stably expressing human GPR43 were-seeded in cell culture medium in black, clear-bottom 384-well plates (Corning Inc) and grown overnight at 37° C., 5% CO2. On the day of the assay, cell culture media was removed and cells were loaded with Calcium 5 Dye (Molecular Devices) diluted in HBSS containing 25 mM HEPES, 2.5 mM Probenecid, 0.1% BSA for 1 hour at 37° C., 5% CO2. 10 point half log concentration response curves of sodium acetate from 10 mM were conducted prior to the testing of compounds to calculate the sodium acetate concentration that produces 20% of the maximal response (EC20). Test compounds (at to point half log concentration response curves from 10 μM) were added in the presence of sodium acetate to achieve a final concentration that produces approximately 20% maximal response as calculated from the previous experiment. The changes in fluorescent signal were monitored by FLIPR upon addition of the compound/EC20 sodium acetate mix. The EC50 values were determined from ten point concentration response curves. Curves were generated using the average of two wells for each data point.
The above assay detects both GPR43 receptor agonists and positive allosteric modulators of the GPR43 receptor, without distinguishing between the two. Activity in either regard is useful in the treatment of conditions associated with GPR43 receptor activity.

**Q.** `Nc1c(S(=O)(=O)N2CCN(C(=O)c3ccc(F)cc3)CC2)c2nccnc2n1C1CCCCC1` [Example 98, 5-cyclohexyl-7-{4-[(4-fluorophenyl)carbonyl]piperazine-1-sulfonyl}-5H-pyrrolo[2,3-b]pyrazin-6-amine] was tested. Which EC50 did it give?
**A.** 2810 nM

**Q.** Which EC50 does the source give for `Nc1c(S(=O)(=O)N2CCc3ccccc3C2)c2nccnc2n1C1CCCCC1` [Example 94, 5-cyclohexyl-7-(1,2,3,4-tetrahydroisoquinoline-2-sulfonyl)-5H-pyrrolo[2,3-b]pyrazin-6-amine] here?
**A.** 308 nM

**Q.** With `Nc1c(S(=O)(=O)Nc2cccnc2)c2nccnc2n1C1CCCCC1` [Example 42, 6-amino-5-cyclohexyl-N-(pyridin-3-yl)-5H-pyrrolo[2,3-b]pyrazine-7-sulfonamide] as the molecule, how does the EC50 read?
**A.** 2300 nM

**Q.** For `CN1CCN(S(=O)(=O)c2c(N)n(C3CCCCC3)c3nccnc23)CC1` [Example 63, 5-cyclohexyl-7-((4-methylpiperazin-1-yl)sulfonyl)-5H-pyrrolo[2,3-b]pyrazin-6-amine], which EC50 is on record?
**A.** 7950 nM

**Q.** `COCCNS(=O)(=O)c1c(N)n(C2CCCCC2)c2nccnc12` [Example 90, 6-amino-5-cyclohexyl-N-(2-methoxyethyl)-5H-pyrrolo[2,3-b]pyrazine-7-sulfonamide] was tested. Which EC50 did it give?
**A.** 6180 nM

**Q.** How did the EC50 turn out when `Nc1c(S(=O)(=O)C2CC2)c2nccnc2n1C1CCCCC1` [Example 109, 5-cyclohexyl-7-(cyclopropanesulfonyl)-5H-pyrrolo[2,3-b]pyrazin-6-amine] was run?
**A.** 2900 nM

**Q.** For `Cc1ccc(S(=O)(=O)c2c(N)n(C3CCCC3)c3cccnc23)cc1` [Example 10, 1-cyclopentyl-3-[(4-methylbenzene)sulfonyl]-1H-pyrrolo[3,2-b]pyridin-2-amine], which EC50 is on record?
**A.** 2300 nM

**Q.** With `Nc1c(S(=O)(=O)N2CCCC2)c2nccnc2n1C1CCCCC1` [Example 58, 5-cyclohexyl-7-(pyrrolidin-1-ylsulfonyl)-5H-pyrrolo[2,3-b]pyrazin-6-amine] as the molecule, how does the EC50 read?
**A.** 2240 nM

**Q.** With `CCC1(Cn2c(N)c(S(=O)(=O)c3ccccc3)c3nccnc32)CC1` [Example 55, 5-((1-ethylcyclopropyl)-methyl)-7-(phenylsulfonyl)-5H-pyrrolo[2,3-b]pyrazin-6-amine] as the molecule, how does the EC50 read?
**A.** 7170 nM

**Q.** `Nc1c(S(=O)(=O)c2ccccc2)c2nccnc2n1C1CCC1` [Example 43, 5-cyclobutyl-7-(phenylsulfonyl)-5H-pyrrolo[2,3-b]pyrazin-6-amine] was tested. Which EC50 did it give?
**A.** 6990 nM

**Q.** How did the EC50 turn out when `N#Cc1ncnc2c(S(=O)(=O)c3ccccc3)c(N)n(C3CCCCC3)c12` [Example 37, 6-amino-7-(benzenesulfonyl)-5-cyclohexyl-5H-pyrrolo[3,2-d]pyrimidine-4-carbonitrile] was run?
**A.** 468 nM

**Q.** For `CCCNS(=O)(=O)c1c(N)n(C2CCCCC2)c2nccnc12` [Example 59, 6-amino-5-cyclohexyl-N-propyl-5H-pyrrolo[2,3-b]pyrazine-7-sulfonamide], which EC50 is on record?
**A.** 792 nM

**Q.** Which EC50 does the source give for `CC1CCCN(S(=O)(=O)c2c(N)n(C3CCCCC3)c3nccnc23)C1` (stereo not shown) [Example 102, 5-cyclohexyl-7-(3-methylpiperidine-1-sulfonyl)-5H-pyrrolo[2,3-b]pyrazin-6-amine] here?
**A.** 258 nM

**Q.** How did the EC50 turn out when `Nc1c(S(=O)(=O)c2ccccc2)c2cccnc2n1C1CCC(F)(F)CC1` [Example 17, 3-(benzenesulfonyl)-1-(4,4-difluorocyclohexyl)-1H-pyrrolo[2,3-b]pyridin-2-amine] was run?
**A.** 559 nM

**Q.** With `Nc1c(S(=O)(=O)N2CCCCC2)c2nccnc2n1C1CCCCC1` [Example 57, 5-cyclohexyl-7-(piperidin-1-ylsulfonyl)-5H-pyrrolo[2,3-b]pyrazin-6-amine] as the molecule, how does the EC50 read?
**A.** 259 nM

**Q.** Which EC50 does the source give for `COc1ccc(S(=O)(=O)c2c(N)n(C3CCC(F)(F)CC3)c3ncccc23)cc1` [Example 14, 1-(4,4-difluorocyclohexyl)-3-[(4-methoxybenzene)sulfonyl]-1H-pyrrolo[2,3-b]pyridin-2-amine] here?
**A.** 138 nM

**Q.** For `Nc1c(S(=O)(=O)c2ccccc2)c2cccnc2n1C1CCCCC1` [Example 15, 3-(benzenesulfonyl)-1-cyclohexyl-1H-pyrrolo[2,3-b]pyridin-2-amine], which EC50 is on record?
**A.** 381 nM

**Q.** `Nc1c(S(=O)(=O)N2CCCCCC2)c2nccnc2n1C1CCCCC1` [Example 77, 7-(azepane-1-sulfonyl)-5-cyclohexyl-5H-pyrrolo[2,3-b]pyrazin-6-amine] was tested. Which EC50 did it give?
**A.** 290 nM

**Q.** For `Nc1c(S(=O)(=O)N2CCC(O)CC2)c2nccnc2n1C1CCCCC1` [Example 93, 1-{6-amino-5-cyclohexyl-5H-pyrrolo[2,3-b]pyrazine-7-sulfonyl}piperidin-4-ol], which EC50 is on record?
**A.** 5700 nM

**Q.** Which EC50 does the source give for `Nc1c(S(=O)(=O)c2ccccc2)c2nccnc2n1C1CCCOC1` (stereo not shown) [Example 51, 7-(phenylsulfonyl)-5-(tetrahydro-2H-pyran-3-yl)-5H-pyrrolo[2,3-b]pyrazin-6-amine] here?
**A.** 6000 nM

**Q.** `COC1CCN(S(=O)(=O)c2c(N)n(C3CCCCC3)c3nccnc23)CC1` [Example 73, 5-cyclohexyl-7-(4-methoxypiperidine-1-sulfonyl)-5H-pyrrolo[2,3-b]pyrazin-6-amine] was tested. Which EC50 did it give?
**A.** 488 nM

**Q.** With `Nc1c(S(=O)(=O)N2CCC(C(F)(F)F)CC2)c2nccnc2n1C1CCCCC1` [Example 87, 5-cyclohexyl-7-[4-(trifluoromethyl)piperidine-1-sulfonyl]-5H-pyrrolo[2,3-b]pyrazin-6-amine] as the molecule, how does the EC50 read?
**A.** 1550 nM

**Q.** With `COCC1CCN(S(=O)(=O)c2c(N)n(C3CCCCC3)c3nccnc23)C1` (stereo not shown) [Example 88, 5-cyclohexyl-7-[3-(methoxyrnethyl)pyrrolidine-1-sulfonyl]-5H-pyrrolo[2,3-b]pyrazin-6-amine] as the molecule, how does the EC50 read?
**A.** 3150 nM

**Q.** With `Nc1c(S(=O)(=O)c2ccccc2)c2nccnc2n1CCC1CCC1` [Example 50, 5-(2-cyclobutylethyl)-7-(phenylsulfonyl)-5H-pyrrolo[2,3-b]pyrazin-6-amine] as the molecule, how does the EC50 read?
**A.** 760 nM

**Q.** For `Nc1c(S(=O)(=O)c2ccccc2)c2ncnc(O)c2n1C1CCC(F)(F)CC1` [Example 31, 6-amino-5-(4,4-difluorocyclohexyl)-7-(phenylsulfonyl)-5H-pyrrolo[3,2-d]pyrimidin-4-ol], which EC50 is on record?
**A.** 6940 nM

**Q.** With `Nc1c(S(=O)(=O)c2ccccc2)c2cc(Cl)nnc2n1C1CCCCC1` [Example 27, 5-(benzenesulfonyl)-3-chloro-7-cyclohexyl-7H-pyrrolo[2,3-c]pyridazin-6-amine] as the molecule, how does the EC50 read?
**A.** 277 nM

**Q.** With `Nc1c(S(=O)(=O)c2ccc(Cl)cc2)c2nccnc2n1C1CCCCC1` [Example 5, 7-[(4-chlorobenzene)sulfonyl]-5-cyclohexyl-5H-pyrrolo[2,3-b]pyrazin-6-amine] as the molecule, how does the EC50 read?
**A.** 195 nM

**Q.** With `Nc1c(S(=O)(=O)c2ccccc2)c2nccnc2n1[C@@H]1C[C@H]2CC[C@@H]1C2` (relative stereo) [Example 53, 5-((1R*,2R*,4S*)-bicyclo[2.2.1]heptan-2-yl)-7-(phenylsulfonyl)-5H-pyrrolo[2,3-b)pyrazin-6-amine] as the molecule, how does the EC50 read?
**A.** 275 nM

**Q.** How did the EC50 turn out when `CCOC1CCN(S(=O)(=O)c2c(N)n(C3CCCCC3)c3nccnc23)CC1` [Example 65, 5-cyclohexyl-7-((4-ethoxypiperidin-1-yl)sulfonyl)-5H-pyrrolo[2,3-b]pyrazin-6-amine] was run?
**A.** 210 nM

**Q.** With `COC1CN(S(=O)(=O)c2c(N)n(C3CCCCC3)c3nccnc23)C1` [Example 64, 5-cyclohexyl-7-((3-methoxyazetidin-1-yl)sulfonyl)-5H-pyrrolo[2,3-b]pyrazin-6-amine] as the molecule, how does the EC50 read?
**A.** 7130 nM

**Q.** With `Nc1c(S(=O)(=O)NCCc2nccs2)c2nccnc2n1C1CCCCC1` [Example 103, 6-amino-5-cyclohexyl-N-[2-(1,3-thiazol-2-yl)ethyl]-5H-pyrrolo[2,3-b]pyrazine-7-sulfonamide] as the molecule, how does the EC50 read?
**A.** 471 nM

**Q.** How did the EC50 turn out when `Nc1c(S(=O)(=O)c2ccccc2)c2ncncc2n1C1CCCCC1` [Example 19, 7-(benzenesulfonyl)-5-cyclohexyl-5H-pyrrolo[3,2-d]pyrimidin-6-amine] was run?
**A.** 1780 nM

**Q.** Which EC50 does the source give for `Nc1c(S(=O)(=O)N2CCC(c3ccccc3)CC2)c2nccnc2n1C1CCCCC1` [Example 83, 5-cyclohexyl-7-(4-phenylpiperidine-1-sulfonyl)-5H-pyrrolo[2,3-b]pyrazin-6-amine] here?
**A.** 931 nM

**Q.** For `Cc1ccc(S(=O)(=O)c2c(N)n(C3CCCCC3)c3nccnc23)cc1` [Example 3], which EC50 is on record?
**A.** 122 nM

**Q.** `COC(=O)Nc1c(S(=O)(=O)c2ccccc2)c2nccnc2n1C1CCCCC1` [Example 24, methyl N-[7-(benzenesulfonyl)-5-cyclohexyl-5H-pyrrolo[2,3-b]pyrazin-6-yl]carbamate] was tested. Which EC50 did it give?
**A.** 2590 nM

**Q.** For `COc1ccc(S(=O)(=O)c2c(N)n(C3CCCCC3)c3nccnc23)cn1` [Example 115, 5-cyclohexyl-7-(6-methoxypyridine-3-sulfonyl)-5H-pyrrolo[2,3-b]pyrazin-6-amine], which EC50 is on record?
**A.** 4560 nM

**Q.** `Nc1c(S(=O)(=O)c2ccccc2)c2cncnc2n1C1CCCCC1` [Example 16] was tested. Which EC50 did it give?
**A.** 337 nM
